Laboratory results from the supplement of paper PMC11451515.

Test system: NOMO1
Assay: cell viability relative to DMSO control; higher = less cytotoxic
Conditions: 48 h
Outline: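 Library compounds in DMSO were pin-dosed into 1536-well plates (5 μl) holding NOMO1 or SEM (500 cells/well) or P12-Ichikawa (1000 cells/well) leukemia cells, across an 11-point threefold series of 47 μM to 0.79 nM. Each cell line had been adapted for at least four passages in each medium. CellTiter-Glo One luminescence was read after 48 h at 37°C. Viability is the per-plate percentage relative to DMSO wells, with cell-free wells as background.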

[1] = HPLM + 10% dialyzed FBS, 0.000781 µM
[2] = HPLM + 10% dialyzed FBS, 0.00234 µM
[3] = HPLM + 10% dialyzed FBS, 0.00702 µM
[4] = HPLM + 10% dialyzed FBS, 0.0211 µM
[5] = HPLM + 10% dialyzed FBS, 0.0632 µM
[6] = HPLM + 10% dialyzed FBS, 0.19 µM
[7] = HPLM + 10% dialyzed FBS, 0.569 µM
[8] = HPLM + 10% dialyzed FBS, 1.71 µM
[9] = HPLM + 10% dialyzed FBS, 5.12 µM
[10] = HPLM + 10% dialyzed FBS, 15.4 µM
[11] = HPLM + 10% dialyzed FBS, 46.1 µM
[12] = RPMI 5 mM glucose + 10% FBS, 0.000781 µM
[13] = RPMI 5 mM glucose + 10% FBS, 0.00234 µM
[14] = RPMI 5 mM glucose + 10% FBS, 0.00702 µM
[15] = RPMI 5 mM glucose + 10% FBS, 0.0211 µM
[16] = RPMI 5 mM glucose + 10% FBS, 0.0632 µM
[17] = RPMI 5 mM glucose + 10% FBS, 0.19 µM
[18] = RPMI 5 mM glucose + 10% FBS, 0.569 µM
[19] = RPMI 5 mM glucose + 10% FBS, 1.71 µM
[20] = RPMI 5 mM glucose + 10% FBS, 5.12 µM
[21] = RPMI 5 mM glucose + 10% FBS, 15.4 µM
[22] = RPMI 5 mM glucose + 10% FBS, 46.1 µM
[23] = RPMI 5 mM glucose + 10% dialyzed FBS, 0.000781 µM
[24] = RPMI 5 mM glucose + 10% dialyzed FBS, 0.00234 µM
[25] = RPMI 5 mM glucose + 10% dialyzed FBS, 0.00702 µM
[26] = RPMI 5 mM glucose + 10% dialyzed FBS, 0.0211 µM
[27] = RPMI 5 mM glucose + 10% dialyzed FBS, 0.0632 µM
[28] = RPMI 5 mM glucose + 10% dialyzed FBS, 0.19 µM
[29] = RPMI 5 mM glucose + 10% dialyzed FBS, 0.569 µM
[30] = RPMI 5 mM glucose + 10% dialyzed FBS, 1.71 µM
[31] = RPMI 5 mM glucose + 10% dialyzed FBS, 5.12 µM
[32] = RPMI 5 mM glucose + 10% dialyzed FBS, 15.4 µM
[33] = RPMI 5 mM glucose + 10% dialyzed FBS, 46.1 µM

Structure (SMILES)	cell viability [1]	cell viability [2]	cell viability [3]	cell viability [4]	cell viability [5]	cell viability [6]	cell viability [7]	cell viability [8]	cell viability [9]	cell viability [10]	cell viability [11]	cell viability [12]	cell viability [13]	cell viability [14]	cell viability [15]	cell viability [16]	cell viability [17]	cell viability [18]	cell viability [19]	cell viability [20]	cell viability [21]	cell viability [22]	cell viability [23]	cell viability [24]	cell viability [25]	cell viability [26]	cell viability [27]	cell viability [28]	cell viability [29]	cell viability [30]	cell viability [31]	cell viability [32]	cell viability [33]
O=C(Nc1ccccc1)Nc1ccc(-c2ccc(C(=O)[C@@H]3CCC[C@H]3C(=O)O)cc2)cc1	109%	122%	103%	94.1%	119%	98.3%	99%	77%	67.2%	66.7%	56.5%	109%	111%	98.6%	101%	110%	97.7%	100%	95.9%	90.6%	83.5%	69.5%	105%	121%	114%	105%	122%	97.9%	88.8%	96%	81.8%	73.7%	59.7%
CCC(=O)N1CCN(CC1)C2=C(C=C(C=C2)N3C(=O)\C=C/C4=C3C5=CC(=CC=C5N=C4)C6=CN=C7C=CC=CC7=C6)C(F)(F)F	93.9%	94.4%	89.2%	90.8%	83.2%	75%	61.4%	71.8%	72.7%	69.2%	67%	98%	96.7%	96.9%	104%	90.4%	79%	72.7%	68.2%	62.3%	64%	63.7%	77.6%	100%	86.3%	86.5%	82.5%	77.6%	68.3%	60.8%	57.6%	57.4%	54.7%
C=C1CCC2[C@](C)(CO)C(O)CC[C@]2(C)C1C/C=C1/C(=O)OCC1O (stereo partly drawn)												111%	109%	115%	101%	114%	113%	99.3%	105%	97.5%	104%	98.4%	121%	104%	114%	110%	118%	107%	105%	109%	95.5%	101%	96.9%
O=C1c2ccccc2-c2n[nH]c3cccc1c23	109%	131%	103%	111%	123%	120%	92.5%	122%	102%	53.6%	28.3%	90.6%	105%	110%	113%	102%	127%	113%	107%	117%	53.7%	18.2%	101%	107%	98.3%	114%	116%	115%	120%	108%	94.2%	94.9%	23.9%
OC[C@H]1OC(O)C[C@@H](O)[C@@H]1O (stereo partly drawn)	110%	113%	127%	125%	125%	128%	121%	135%	109%	122%	52.4%												109%	118%	128%	125%	137%	123%	120%	142%	128%	129%	68%
c1ccc2c(CN3CCNCC3)cccc2c1	99.6%	113%	124%	106%	112%	121%	113%	112%	104%	99.7%	93.7%	103%	124%	115%	117%	117%	126%	115%	133%	110%	99.9%	51.6%	108%	113%	106%	117%	115%	122%	129%	122%	116%	91.7%	64.9%
OC1CCC(CC1)N2\C=N/C3=C(C2=N)C(=C([N]3CC4=CC=CC=C4)C5=CC=CC=C5)C6=CC=CC=C6 (stereo not drawn)	115%	133%	121%	144%	142%	130%	130%	93.8%	81%	74.9%	9.01%																						
CCc1nc(N)nc(N)c1-c1ccc(Cl)cc1	78.8%	118%	93.3%	92.8%	105%	108%	96.1%	47.7%	48%	44.6%	38.7%	81.1%	99.5%	84.8%	83.7%	86.1%	86.4%	90.6%	90.5%	89.9%	89.1%	89.6%	84%	94.3%	90.3%	100%	106%	104%	96.8%	104%	90.2%	56.3%	35.3%
C[C@@H](Cc1cc2c(c(C(N)=O)c1)N(CCCO)CC2)NCCOc1ccccc1OCC(F)(F)F	94.5%	99.7%	101%	120%	107%	123%	122%	135%	111%	114%	113%	94.5%	105%	107%	106%	112%	109%	110%	105%	116%	110%	106%	89.4%	106%	106%	104%	126%	115%	109%	121%	116%	105%	104%
O=C(O)c1cccnc1	121%	114%	130%	118%	115%	123%	107%	85.2%	49.4%	27.4%	13.2%	121%	123%	121%	102%	124%	116%	112%	101%	85%	23.7%	14.4%	116%	117%	116%	117%	118%	122%	117%	98.6%	61.5%	22.1%	10%
CCOc1ccccc1N/N=C1/C(=O)N(c2nc(-c3ccccc3)cs2)N=C1C	118%	122%	119%	123%	113%	117%	115%	108%	103%	57.5%	32.1%	109%	103%	104%	114%	97.3%	109%	101%	97.3%	97.8%	77.1%	56.1%	109%	106%	103%	122%	118%	102%	104%	90.5%	90%	59.8%	39.7%
O=C1\C=C(OC2=C(C=CC=C12)C3=CC=CC4=C3SC5=C4C=CC=C5)\N6CCOCC6	123%	123%	129%	128%	135%	121%	135%	133%	114%	132%	112%												113%	121%	125%	131%	128%	129%	133%	136%	116%	117%	107%
COc1cc2c(cc1O)CCC1C2CC[C@@]2(C)C1CC[C@@H]2O (stereo partly drawn)												117%	111%	103%	110%	121%	120%	111%	101%	84.2%	25.1%	32.6%	118%	129%	117%	116%	121%	115%	119%	115%	63.8%	33.9%	40.4%
